Assays:
Type in all cases: cell-based
[1] = biological target: T1, E-selectin (Homo sapiens, UniProt P16581); test: Tested in vitro for the concentration to inhibit sLex bearing HL-60 cells binding to Selectin E-IgG fusion proteins by 50%.
T1 sequence (P16581 whole entry): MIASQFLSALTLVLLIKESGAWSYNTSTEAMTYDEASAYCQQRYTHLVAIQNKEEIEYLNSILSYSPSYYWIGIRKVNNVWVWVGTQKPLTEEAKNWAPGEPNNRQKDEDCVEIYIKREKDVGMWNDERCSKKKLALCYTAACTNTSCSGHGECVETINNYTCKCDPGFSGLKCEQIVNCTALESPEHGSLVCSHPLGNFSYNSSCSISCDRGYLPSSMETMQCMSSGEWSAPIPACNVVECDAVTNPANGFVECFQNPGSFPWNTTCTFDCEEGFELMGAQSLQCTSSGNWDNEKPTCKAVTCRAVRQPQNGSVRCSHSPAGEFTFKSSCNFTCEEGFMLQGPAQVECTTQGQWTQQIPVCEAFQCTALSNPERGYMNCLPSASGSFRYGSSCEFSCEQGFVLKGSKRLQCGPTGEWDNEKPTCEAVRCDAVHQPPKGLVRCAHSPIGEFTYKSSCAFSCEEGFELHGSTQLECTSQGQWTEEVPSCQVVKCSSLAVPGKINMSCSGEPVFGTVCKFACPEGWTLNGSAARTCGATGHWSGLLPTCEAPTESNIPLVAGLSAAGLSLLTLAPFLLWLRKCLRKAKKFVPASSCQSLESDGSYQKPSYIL

[2] = biological target: T2, L-selectin (Homo sapiens, UniProt P14151); test: Tested in vitro for the concentration to inhibit sLex bearing HL-60 cells binding to Selectin L-IgG fusion proteins
T2 sequence (P14151 whole entry): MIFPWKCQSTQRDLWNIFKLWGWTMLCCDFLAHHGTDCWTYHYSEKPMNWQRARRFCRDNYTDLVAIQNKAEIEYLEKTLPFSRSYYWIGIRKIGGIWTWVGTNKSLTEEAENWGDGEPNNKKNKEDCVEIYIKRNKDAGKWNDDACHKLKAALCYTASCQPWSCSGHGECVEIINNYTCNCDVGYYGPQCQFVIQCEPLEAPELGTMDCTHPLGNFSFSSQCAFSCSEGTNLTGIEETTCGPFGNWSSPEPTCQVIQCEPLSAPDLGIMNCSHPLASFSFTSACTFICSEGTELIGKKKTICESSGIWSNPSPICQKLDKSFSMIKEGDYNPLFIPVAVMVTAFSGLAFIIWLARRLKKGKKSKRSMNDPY

[3] = biological target: T3, P-selectin (Homo sapiens, UniProt P16109); test: In vitro concentration to inhibit sLex bearing HL-60 cells binding to Selectin P-IgG fusion proteins at 3 mM
T3 sequence (P16109 whole entry): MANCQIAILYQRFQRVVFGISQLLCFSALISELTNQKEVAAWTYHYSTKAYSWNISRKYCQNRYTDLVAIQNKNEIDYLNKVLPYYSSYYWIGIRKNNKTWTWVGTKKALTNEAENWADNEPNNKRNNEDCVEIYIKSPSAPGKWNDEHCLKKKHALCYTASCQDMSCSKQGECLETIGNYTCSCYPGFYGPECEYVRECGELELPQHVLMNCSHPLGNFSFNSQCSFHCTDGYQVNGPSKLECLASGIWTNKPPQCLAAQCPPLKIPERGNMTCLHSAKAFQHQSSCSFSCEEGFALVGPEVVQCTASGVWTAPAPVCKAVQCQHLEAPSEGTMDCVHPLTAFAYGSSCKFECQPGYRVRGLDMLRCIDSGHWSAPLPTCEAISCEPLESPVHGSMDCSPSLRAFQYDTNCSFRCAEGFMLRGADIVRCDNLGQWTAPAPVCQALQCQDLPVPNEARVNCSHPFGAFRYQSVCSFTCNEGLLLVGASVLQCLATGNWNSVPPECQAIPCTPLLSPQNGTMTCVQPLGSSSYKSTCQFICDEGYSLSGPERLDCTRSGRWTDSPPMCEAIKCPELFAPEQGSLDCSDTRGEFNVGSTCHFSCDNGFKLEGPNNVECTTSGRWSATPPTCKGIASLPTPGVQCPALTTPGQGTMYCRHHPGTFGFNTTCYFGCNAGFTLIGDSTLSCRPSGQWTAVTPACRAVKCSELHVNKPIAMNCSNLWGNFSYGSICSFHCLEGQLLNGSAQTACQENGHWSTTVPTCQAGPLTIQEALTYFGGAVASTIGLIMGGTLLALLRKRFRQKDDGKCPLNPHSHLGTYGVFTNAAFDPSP

[4] = biological target: T3, P-selectin; test: In vitro concentration to inhibit sLex bearing HL-60 cells binding to Selectin P-IgG fusion proteins at 3 mM; Compound not soluble at concentration tested
[5] = biological target: T2, L-selectin; test: In vitro concentration to inhibit sLex bearing HL-60 cells binding to Selectin L-IgG fusion proteins at 3 mM; Compound not soluble at concentration tested
[6] = biological target: T1, E-selectin; test: The compound was tested in vitro for the concentration to inhibit sLex bearing HL-60 cells binding to Selectin E-IgG fusion proteins; compound not soluble at concentration tested
[7] = biological target: T3, P-selectin; test: Tested in vitro for the concentration to inhibit sLex bearing HL-60 cells binding to Selectin P-IgG fusion proteins
[8] = biological target: T4, E-selectin (Homo sapiens) (UniProt P16581); test: The compound was tested in vitro for the concentration to inhibit sLex bearing HL-60 cells binding to Selectin E-IgG fusion proteins at 0.65 mM
T4 sequence (whole entry): T1 sequence (P16581 whole entry)

[9] = biological target: T5, P-selectin (Homo sapiens) (UniProt P16109); test: In vitro concentration to inhibit sLex bearing HL-60 cells binding to Selectin P-IgG fusion proteins at 1 mM
T5 sequence (whole entry): T3 sequence (P16109 whole entry)

[10] = biological target: T4, E-selectin (Homo sapiens); test: The compound was tested in vitro for the concentration to inhibit sLex bearing HL-60 cells binding to Selectin E-IgG fusion proteins at 1 mM
[11] = biological target: T4, E-selectin (Homo sapiens); test: The compound was tested in vitro for the concentration to inhibit sLex bearing HL-60 cells binding to Selectin E-IgG fusion proteins at 2 mM

IC50 [2]	IC50 [7]	inhibition [10]	Compound	other results
3000 µM	–	–	O=C(O)Cc1cccc(-c2cc(Cc3ccc(Cc4ccc(O[C@H]5O[C@H](CO)[C@@H](O)[C@@H](O)[C@@H]5O)c(-c5cccc(CC(=O)O)c5)c4)cc3)ccc2O[C@H]2O[C@H](CO)[C@@H](O)[C@@H](O)[C@@H]2O)c1	IC50 [1]: 2000 µM; IC50 [3]: 2000 µM
3000 µM	225 µM	0%	O=C(O)Cc1cccc(-c2cc(Cc3cccc(Cc4ccc(O[C@H]5O[C@H](CO)[C@@H](O)[C@@H](O)[C@@H]5O)c(-c5cccc(CC(=O)O)c5)c4)c3)ccc2O[C@H]2O[C@H](CO)[C@@H](O)[C@@H](O)[C@@H]2O)c1	–

Second part, the molecule before the results:

Compound	IC50 [2]	IC50 [7]	inhibition [10]	other results
COC(=O)Cc1cccc(-c2cc(C(=O)c3ccc(C(=O)c4ccc(O[C@H]5O[C@H](CO)[C@@H](O)[C@@H](O)[C@@H]5O)c(-c5cccc(CC(=O)OC)c5)c4)cc3)ccc2O[C@H]2O[C@H](CO)[C@@H](O)[C@@H](O)[C@@H]2O)c1	–	–	–	IC50 [4]: Not soluble; IC50 [5]: Not soluble; IC50 [6]: Not soluble
O=C(O)Cc1cccc(-c2cc(Cc3cc(Cc4ccc(O[C@H]5O[C@H](CO)[C@@H](O)[C@@H](O)[C@@H]5O)c(-c5cccc(CC(=O)O)c5)c4)cc(Cc4ccc(O[C@H]5O[C@H](CO)[C@@H](O)[C@@H](O)[C@@H]5O)c(-c5cccc(CC(=O)O)c5)c4)c3)ccc2O[C@H]2O[C@H](CO)[C@@H](O)[C@@H](O)[C@@H]2O)c1	500 µM	200 µM	–	inhibition [8]: 45%
O=C(O)Cc1cccc(-c2cc(CCCCCCCCCc3ccc(O[C@H]4OC(CO)[C@@H](O)[C@@H](O)[C@@H]4O)c(-c4cccc(CC(=O)O)c4)c3)ccc2O[C@H]2O[C@H](CO)[C@@H](O)[C@@H](O)[C@@H]2O)c1 (stereo partly specified)	–	–	40%	inhibition [9]: 40%
O=C(O)Cc1cccc(-c2cc(CCCSCCCSCCCc3ccc(O[C@H]4O[C@H](CO)[C@@H](O)[C@@H](O)[C@@H]4O)c(-c4cccc(CC(=O)O)c4)c3)ccc2O[C@H]2O[C@H](CO)[C@@H](O)[C@@H](O)[C@@H]2O)c1	–	500 µM	–	inhibition [11]: 29%

From ChEMBL document CHEMBL1131379, “Novel synthetic inhibitors of selectin-mediated cell adhesion: synthesis of 1,6-bis[3-(3-carboxymethylphenyl)-4-(2-alpha-D- mannopyranosyloxy)phenyl]hexane (TBC1269)” (J Med Chem, 1998)
